Laboratory results: patent US20050054696A1, “Indole compounds and medicinal use thereof” (priority 2001, published 2005)

Molecular target: T1, recombinant human liver glycogen phosphorylase (HLGPa) (Homo sapiens, UniProt P06737)
T1 construct: made in house; host or cells: Sf9 insect cells (unpurified cell lysate used as enzyme solution)
T1 sequence (P06737 1-847): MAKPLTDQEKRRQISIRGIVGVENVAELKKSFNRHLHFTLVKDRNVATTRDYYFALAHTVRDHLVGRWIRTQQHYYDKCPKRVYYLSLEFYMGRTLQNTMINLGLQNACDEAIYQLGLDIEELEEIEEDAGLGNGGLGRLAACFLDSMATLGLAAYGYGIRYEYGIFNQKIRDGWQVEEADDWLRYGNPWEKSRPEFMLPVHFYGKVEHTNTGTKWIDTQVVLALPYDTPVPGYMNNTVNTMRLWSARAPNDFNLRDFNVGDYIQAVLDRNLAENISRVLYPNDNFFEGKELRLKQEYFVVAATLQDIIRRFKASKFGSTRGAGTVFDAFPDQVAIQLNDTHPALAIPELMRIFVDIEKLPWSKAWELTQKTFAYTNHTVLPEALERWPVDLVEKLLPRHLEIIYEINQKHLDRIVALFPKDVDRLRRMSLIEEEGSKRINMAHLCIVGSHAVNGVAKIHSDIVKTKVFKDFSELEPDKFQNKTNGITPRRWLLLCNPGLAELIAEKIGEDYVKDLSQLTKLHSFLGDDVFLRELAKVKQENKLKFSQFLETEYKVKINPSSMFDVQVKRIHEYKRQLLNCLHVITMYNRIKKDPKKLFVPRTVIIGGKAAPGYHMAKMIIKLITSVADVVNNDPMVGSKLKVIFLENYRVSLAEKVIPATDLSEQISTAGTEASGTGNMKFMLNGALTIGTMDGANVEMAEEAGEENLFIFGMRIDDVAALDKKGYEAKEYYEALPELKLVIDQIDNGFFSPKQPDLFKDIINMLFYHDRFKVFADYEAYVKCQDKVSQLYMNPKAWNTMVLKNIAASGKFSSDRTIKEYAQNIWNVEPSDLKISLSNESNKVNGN
Test: Measurement of liver glycogen phosphorylase activity (enzyme inhibitory activity against HLGPa)
Format: biochemical
Details: Sf9 cell lysate expressing recombinant enzyme; reverse reaction (glycogen synthesis from G1-P), phosphate by malachite green, 60 min room temperature
Procedure, shortened: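 Activity was run in the reverse, glycogen-synthesis direction, using Sf9 lysate expressing recombinant human liver glycogen phosphorylase (enzyme solution 80 μg/mL protein, pH 7.0). Substrate solution was Tris pH 7.2 with 1.25 mM glucose-1-phosphate, 2.5 mg/ml glycogen and 7.5 mM glucose, reacted 60 min at room temperature. Released phosphate was measured by malachite green A650, with % inhibition taken against DMSO control and no-enzyme blank.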

Row | IC50 | Compound
1 | 54 nM | Cc1ccc2[nH]c(C(=O)NNC(=O)c3ccsc3)cc2c1 [Example 1-107, thiophene-3-carboxylic acid 2-(5-methyl-1H-indole-2-carbonyl)hydrazide]
2 | 56 nM | O=C(NNC(=O)c1cc2sccc2[nH]1)c1cc2cc(Cl)ccc2[nH]1 [Example 1-108, 4H-thieno[3,2-b]pyrrole-5-carboxylic acid 2-(5-chloro-1H-indole-2-carbonyl)hydrazide]
3 | 28 nM | O=C(Nc1ccccc1C(=O)NNC(=O)c1cc2cc(Cl)ccc2[nH]1)OCCCO [Example 1-112, 3-hydroxypropyl (2-(2-(5-chloro-1H-indole-2-carbonyl)hydrazinocarbonyl)phenyl)carbamate]
4 | 41 nM | CN(NC(=O)c1cc2cc(Cl)ccc2[nH]1)C(=O)C1CCCCC1 [Example 1-116, cyclohexanecarboxylic acid 2-(5-chloro-1H-indole-2-carbonyl)-1-methylhydrazide]
5 | > 100 nM | O=C(NNC(=O)c1cc2cc([N+](=O)[O-])ccc2[nH]1)c1ccccc1 [Example 1-122, benzoic acid 2-(5-nitro-1H-indole-2-carbonyl)hydrazide]
6 | > 100 nM | O=C(NNC(=O)c1cc2cc(OCc3ccccc3)ccc2[nH]1)c1ccccc1 [Example 1-123, benzoic acid 2-(5-benzyloxy-1H-indole-2-carbonyl)hydrazide]
7 | > 100 nM | O=C(NNC(=O)c1cc2ccc(Cl)cc2[nH]1)c1ccccc1 [Example 1-124, benzoic acid 2-(6-chloro-1H-indole-2-carbonyl)hydrazide]
8 | 190 nM | O=C(NNC(=O)c1cc2ccsc2[nH]1)c1cc2cc(Cl)ccc2[nH]1 [Example 1-125, 6H-thieno[2,3-b]pyrrole-5-carboxylic acid 2-(5-chloro-1H-indole-2-carbonyl)hydrazide]
9 | 84 nM | N=C(NNC(=O)c1cc2cc(Cl)ccc2[nH]1)c1cccc(F)c1 [Example 1-127, 5-chloro-1H-indole-2-carboxylic acid 2-((3-fluorophenyl)-imino-methyl)hydrazide]
10 | 33 nM | N=C(NNC(=O)c1cc2cc(Cl)ccc2[nH]1)c1ccc(F)cc1 [Example 1-128, 5-chloro-1H-indole-2-carboxylic acid 2-((4-fluorophenyl)-imino-methyl)hydrazide]
11 | 59 nM | Cc1ccc(C(=N)NNC(=O)c2cc3cc(Cl)ccc3[nH]2)cc1 [Example 1-129, 5-chloro-1H-indole-2-carboxylic acid 2-(imino-(p-tolyl)-methyl)hydrazide]
12 | 110 nM | N=C(NNC(=O)c1cc2cc(Cl)ccc2[nH]1)c1cccc(F)c1 [Example 1-132, 5-chloro-1H-indole-2-carboxylic acid 2-((3-fluorophenyl)-imino-methyl)hydrazide]
13 | 50 nM | Cc1ccccc1C(=N)NNC(=O)c1cc2cc(Cl)ccc2[nH]1 [Example 1-133, 5-chloro-1H-indole-2-carboxylic acid 2-(imino-(o-tolyl)-methyl)hydrazide]
14 | 270 nM | N=C(NNC(=O)c1cc2cc(Cl)ccc2[nH]1)c1ccccn1 [Example 1-136, 5-chloro-1H-indole-2-carboxylic acid 2-(imino-(pyridin-2-yl)-methyl)hydrazide]
15 | 330 nM | N=C(NNC(=O)c1cc2cc(Cl)ccc2[nH]1)c1ccco1 [Example 1-137, 5-chloro-1H-indole-2-carboxylic acid 2-((furan-2-yl)-imino-methyl)hydrazide]
16 | 460 nM | N=C(NNC(=O)c1cc2cc(Cl)ccc2[nH]1)c1c(F)cccc1Cl [Example 1-138, 5-chloro-1H-indole-2-carboxylic acid 2-((2-chloro-6-fluorophenyl)-imino-methyl)hydrazide]

Row | IC50 | Compound
17 | 380 nM | N=C(NNC(=O)c1cc2cc(Cl)ccc2[nH]1)c1ccccc1C(F)(F)F [Example 1-139, 5-chloro-1H-indole-2-carboxylic acid 2-(imino-(2-trifluoromethylphenyl)-methyl)hydrazide]
18 | 180 nM | N=C(NNC(=O)c1cc2cc(Cl)ccc2[nH]1)c1cnccn1 [Example 1-140, 5-chloro-1H-indole-2-carboxylic acid 2-(imino-(pyrazin-2-yl)-methyl)hydrazide]
19 | 120 nM | Cc1nc(C(=O)NNC(=O)c2cc3cc(Cl)ccc3[nH]2)c(N)s1 [Example 1-143, 5-amino-2-methylthiazole-4-carboxylic acid 2-(5-chloro-1H-indole-2-carbonyl)hydrazide]
20 | 16 nM | O=C(Nn1c(=O)[nH]c2ccccc2c1=O)c1cc2cc(Cl)ccc2[nH]1 [Example 2, N-(1,2,3,4-tetrahydro-2,4-dioxoquinazolin-3-yl)-5-chloro-1H-indole-2-carboxamide]
21 | 71 nM | O=C(Nn1c(=O)oc2ccccc2c1=O)c1cc2cc(Cl)ccc2[nH]1 [Example 2-2, N-(1,2,3,4-tetrahydro-2,4-dioxobenzo[e][1,3]oxazin-3-yl)-5-chloro-1H-indole-2-carboxamide]
22 | > 100 nM | CC(C)c1ccc2[nH]c(C(=O)Nn3c(=O)[nH]c4ccccc4c3=O)cc2c1 [Example 2-9, 5-isopropyl-1H-indole-2-carboxylic acid (1,2,3,4-tetrahydro-2,4-dioxoquinazolin-3-yl)amide]
23 | > 100 nM | CC(C)c1ccc2[nH]c(C(=O)Nn3c(=O)[nH]c4cc(F)ccc4c3=O)cc2c1 [Example 2-10, 5-isopropyl-1H-indole-2-carboxylic acid (7-fluoro-1,2,3,4-tetrahydro-2,4-dioxoquinazolin-3-yl)amide]
24 | > 100 nM | O=C(Nn1c(=O)[nH]c2ccccc2c1=O)c1cc2cc(F)ccc2[nH]1 [Example 2-11, 5-fluoro-1H-indole-2-carboxylic acid (1,2,3,4-tetrahydro-2,4-dioxoquinazolin-3-yl)amide]
25 | 440 nM | O=C(Nn1c(=O)[nH]c2ccccc2c1=O)c1cc2ccc(Cl)cc2[nH]1 [Example 2-12, 6-chloro-1H-indole-2-carboxylic acid (1,2,3,4-tetrahydro-2,4-dioxoquinazolin-3-yl)amide]
26 | 110 nM | Nc1ccc2[nH]c(=O)n(NC(=O)c3cc4cc(Cl)ccc4[nH]3)c(=O)c2c1 [Example 2-16, 5-chloro-1H-indole-2-carboxylic acid (6-amino-1,2,3,4-tetrahydro-2,4-dioxoquinazolin-3-yl)amide]
27 | 40 nM | O=C(Nn1c(=O)[nH]c2ccc(Cl)cc2c1=O)c1cc2cc(Cl)ccc2[nH]1 [Example 2-18, 5-chloro-1H-indole-2-carboxylic acid (6-chloro-1,2,3,4-tetrahydro-2,4-dioxoquinazolin-3-yl)amide]
28 | 91 nM | O=C(Nn1c(=O)[nH]c2cc(Cl)ccc2c1=O)c1cc2cc(Cl)ccc2[nH]1 [Example 2-19, 5-chloro-1H-indole-2-carboxylic acid (7-chloro-1,2,3,4-tetrahydro-2,4-dioxoquinazolin-3-yl)amide]
29 | 22 nM | O=C(Nn1c(=O)[nH]c2c(Cl)cccc2c1=O)c1cc2cc(Cl)ccc2[nH]1 [Example 2-20, 5-chloro-1H-indole-2-carboxylic acid (8-chloro-1,2,3,4-tetrahydro-2,4-dioxoquinazolin-3-yl)amide]
30 | > 100 nM | O=C(O)Cn1c(=O)n(NC(=O)c2cc3cc(Cl)ccc3[nH]2)c(=O)c2ccccc21 [Example 2-21, 2-(3-((5-chloro-1H-indole-2-carbonyl)amino)-1,2,3,4-tetrahydro-2,4-dioxoquinazolin-1-yl)acetic acid]
31 | 31 nM | COC(=O)Cn1c(=O)n(NC(=O)c2cc3cc(Cl)ccc3[nH]2)c(=O)c2ccccc21 [Example 2-22, 2-(3-((5-chloro-1H-indole-2-carbonyl)amino)-1,2,3,4-tetrahydro-2,4-dioxoquinazolin-1-yl)acetic acid methyl ester]
32 | > 100 nM | CCc1ccc2[nH]c(C(=O)Nn3c(=O)[nH]c4ccccc4c3=O)cc2c1 [Example 2-25, 5-ethyl-1H-indole-2-carboxylic acid (1,2,3,4-tetrahydro-2,4-dioxoquinazolin-3-yl)amide]

Row | Compound | IC50
33 | O=C(Nc1ccccc1C(=O)NNC(=O)c1cc2cc(Cl)ccc2[nH]1)Oc1ccccc1 [Example 1-109, phenyl (2-(2-(5-chloro-1H-indole-2-carbonyl)hydrazinocarbonyl)phenyl)carbamate] | 140 nM
34 | O=C(Nc1ccccc1C(=O)NNC(=O)c1cc2cc(Cl)ccc2[nH]1)OCc1ccccc1 [Example 1-110, benzyl (2-(2-(5-chloro-1H-indole-2-carbonyl)hydrazinocarbonyl)phenyl)carbamate] | 35 nM
